From US10035760B2, “Inhibitors of human immunodeficiency virus replication” (priority 2013, dated 2018)
Read-outs that look alike come from different tables or passages of the source.

Test system: recombinant NL4-3 virus (Renilla luciferase) in MT-2 cells
Test: HIV cell culture assay (antiviral activity, luciferase readout in infected MT-2 cells)
Assay type: cell-based
Settings: Renilla
Protocol: HIV cell culture assay—MT-2 cells, 293T cells and the proviral DNA clone of NL4-3 virus were obtained from the NIH AIDS Research and Reference Reagent Program. MT-2 cells were propagated in RPMI 1640 media supplemented with 10% heat inactivated fetal bovine serum (FBS), 100 ug/ml penicillin G and up to 100 units/ml streptomycin. The 293T cells were propagated in DMEM media supplemented with 10% heat inactivated FBS, 100 ug/ml penicillin G and 100 ug/ml streptomycin. A recombinant NL4-3 proviral clone, in which a section of the nef gene was replaced with the Renilla luciferase gene, was used to make the reference virus used in these studies. The recombinant virus was prepared through transfection of the recombinant NL4-3 proviral clone into 293T cells using Transit-293 Transfection Reagent from Mirus Bio LLC (Madison, Wis.). Supernatent was harvested after 2-3 days after transfection, and the amount of virus present was titered in MT-2 cells using luciferase enzyme activity as a marker. Luciferase activity was quantitated using the EnduRen Live Cell Substrate from Promega (Madison, Wis.). Antiviral activities of compounds toward the recombinant virus were quantified by measuring luciferase activity in MT-2 cells infected for 4-5 days with the recombinant virus in the presence of serial dilutions of the compound.
The 50% effective concentration (EC50) was calculated by using the exponential form of the median effect equation where (Fa)=1/[1+(ED50/drug conc.)^m](Johnson V A, Byington R T. Infectivity Assay. In Techniques in HIV Research. ed. Aldovini A, Walker B D. 71-76. New York: Stockton Press. 1990).

[1] = NL43, read-out: Activity, antiviral activity class, recombinant NL4-3 Renilla luciferase virus in MT-2 cells
[2] = NL43, recombinant NL4-3 Renilla luciferase virus in MT-2 cells

SMILES | EC50 [1] | EC50 [2]
CN(C(=O)[C@H](Cc1ccccc1)NC(=O)NS(=O)(=O)c1ccc(F)cc1)c1ccc2c(c1)OCO2 [Example 22, (S)—N-(benzo[d][1,3]dioxol-5-yl)-2-(3-((4-fluorophenyl)sulfonyl)ureido)-N-methyl-3-phenylpropanamide] | 100 to 1000 nM | 
COc1cccc(S(=O)(=O)NC(=O)N[C@@H](Cc2ccccc2)C(=O)N(C)c2ccc3c(c2)OCO3)c1 [Example 20, (S)—N-(benzo[d][1,3]dioxol-5-yl)-2-(3-((3-methoxyphenyl)sulfonyl)ureido)-N-methyl-3-phenylpropanamide] | < 100 nM | 90 nM
Cc1ccccc1S(=O)(=O)NC(=O)N[C@@H](Cc1ccccc1)C(=O)N1CCCc2cc(O)ccc21 [Example 173, (S)—N-((1-(6-hydroxy-3,4-dihydroquinolin-1 (2H)-yl)-1-oxo-3-phenylpropan-2-yl)carbamoyl)-2-methylbenzenesulfonamide] | 100 to 1000 nM | 
Cc1ccccc1S(=O)(=O)NC(=O)N[C@@H](Cc1ccc(C(F)(F)F)cc1)C(=O)N(C)c1ccc2c(c1)OCO2 [Example 61, (S)—N-(benzo[d][1,3]dioxol-5-yl)-N-methyl-2-(3-(o-tolylsulfonyl)ureido)-3-(4-(trifluoromethyl)phenyl)propanamide] | 1000 to 10000 nM | 6620 nM
COc1ccc(N(C)C(=O)[C@H](CC2CCCC2)NC(=O)NS(=O)(=O)c2ccccc2C)cc1 [Example 196, (S)-3-cyclopentyl-N-(4-methoxyphenyl)-N-methyl-2-(3-(o-tolylsulfonyl)ureido)propanamide] | 10000 to 100000 nM | 
Cc1ccccc1S(=O)(=O)NC(=O)N[C@@H](Cc1cc(F)cc(F)c1)C(=O)N(C)c1ccc2scnc2c1 [Example ZY-7, (S)—N-(benzo[d]thiazol-5-yl)-3-(3,5-difluorophenyl)-N-methyl-2-(3-(o-tolylsulfonyl)ureido)propanamide] | < 100 nM | 
CCN(C(=O)[C@H](Cc1ccccc1)NC(=O)NS(=O)(=O)c1ccccc1C(=O)OC)c1ccc(OC)cc1 [Example 114, (S)-methyl 2-(N-((1-(ethyl(4-methoxyphenyl)amino)-1-oxo-3-phenylpropan-2-yl)carbamoyl)sulfamoyl)benzoate] | 1000 to 10000 nM | 1060 nM
COc1ncccc1-c1ccccc1S(=O)(=O)NC(=O)N[C@@H](Cc1ccccc1)C(=O)N(C)c1ccc2c(c1)OCO2 [Example 129, (S)—N-(benzo[d][1,3]dioxol-5-yl)-2-(3-((2-(2-methoxypyridin-3-yl)phenyl)sulfonyl)ureido)-N-methyl-3-phenylpropanamide] | 1000 to 10000 nM | 5520 nM
CC(=O)Nc1ccc(N(C)C(=O)[C@H](Cc2ccccc2)NC(=O)NS(=O)(=O)c2ccccc2C)cc1O [Example CA-85, (S)—N-(4-acetamido-3-hydroxyphenyl)-N-methyl-3-phenyl-2-(3-(o-tolylsulfonyl)ureido)propanamide] | 1000 to 10000 nM | 
CCN(C(=O)[C@H](Cc1ccccc1)NC(=O)NS(=O)(=O)c1cccc(-c2ccoc2)c1)c1ccc(OC)cc1 [Example 121, (S)—N-ethyl-2-(3-((3-(furan-3-yl)phenyl)sulfonyl)ureido)-N-(4-methoxyphenyl)-3-phenylpropanamide] | < 100 nM | 
Cc1ccccc1S(=O)(=O)NC(=O)N[C@@H](Cc1ccccc1)C(=O)N(C)C1CCCCC1 [Example 179, (S)—N-cyclohexyl-N-methyl-3-phenyl-2-(3-(o-tolylsulfonyl)ureido)propanamide] | 1000 to 10000 nM | 
Cc1ccccc1S(=O)(=O)NC(=O)N[C@@H](Cc1ccccc1)C(=O)N(C)c1nc2ccccc2s1 [Example 176, (S)—N-(benzo[d]thiazol-2-yl)-N-methyl-3-phenyl-2-(3-(o-tolylsulfonyl)ureido)propanamide] | 10000 to 100000 nM | 
CN(C(=O)[C@H](Cc1ccccc1)NC(=O)NS(=O)(=O)c1cccc(Cl)c1)c1ccc2c(c1)OCO2 [Example 3, (S)—N-(benzo[d][1,3]dioxol-5-yl)-2-(3-((3-chlorophenyl)sulfonyl)ureido)-N-methyl-3-phenylpropanamide] | 100 to 1000 nM | 
Cc1ccccc1S(=O)(=O)NC(=O)N[C@@H](Cc1cc(F)cc(F)c1)C(=O)N(C)c1ccc2c(c1)OC(F)(F)O2 [Example 40, (S)—N-(2,2-difluorobenzo[d][1,3]dioxol-5-yl)-3-(3,5-difluorophenyl)-N-methyl-2-(3-(o-tolylsulfonyl)ureido)propanamide] | 100 to 1000 nM | 
CN(C(=O)[C@H](Cc1ccccc1)NC(=O)NS(=O)(=O)Cc1ccc(Cl)cc1)c1ccc2c(c1)OCO2 [Example 109, (S)—N-(benzo[d][1,3]dioxol-5-yl)-2-(3-((4-chlorobenzyl)sulfonyl)ureido)-N-methyl-3-phenylpropanamide] | 100 to 1000 nM | 
CN(C(=O)[C@H](Cc1ccccc1)NC(=O)NS(=O)(=O)c1ccccc1)c1ccc2c(c1)OCO2 [Example 1, (S)—N-(benzo[d][1,3]dioxol-5-yl)-N-methyl-3-phenyl-2-(3-(phenylsulfonyl)ureido)propanamide] | 100 to 1000 nM | 260 nM
CCN(C(=O)[C@H](Cc1ccccc1)NC(=O)NS(=O)(=O)c1ccccc1C)c1ccc2ncccc2c1 [Example CA-80, (S)—N-ethyl-3-phenyl-N-(quinolin-6-yl)-2-(3-(o-tolylsulfonyl)ureido)propanamide] | < 100 nM | 30 nM
CCN(C(=O)[C@H](Cc1ccccc1)NC(=O)NS(=O)(=O)c1cccc(C(C)C)c1)c1ccc(OC)cc1 [Example 143, (S)—N-ethyl-2-(3-((3-isopropylphenyl)sulfonyl)ureido)-N-(4-methoxyphenyl)-3-phenylpropanamide] | < 100 nM | 
COc1ccc(N(CCc2ccccc2)C(=O)[C@H](Cc2ccccc2)NC(=O)NS(=O)(=O)c2ccccc2C)cc1 [Example ZY-5, (S)—N-(4-methoxyphenyl)-N-phenethyl-3-phenyl-2-(3-(o-tolylsulfonyl)ureido)propanamide] | 10000 to 100000 nM | 11400 nM
CN(C(=O)[C@H](Cc1ccccc1)NC(=O)NS(=O)(=O)c1ccccc1)c1ccc(Cl)cc1 [Example 88] | 100 to 1000 nM | 450 nM
Cc1ccc(S(=O)(=O)NC(=O)N[C@@H](Cc2ccccc2)C(=O)N(C)c2ccc3c(c2)OCO3)s1 [Example 27, (S)—N-(benzo[d][1,3]dioxol-5-yl)-N-methyl-2-(3-((5-methylthiophen-2-yl)sulfonyl)ureido)-3-phenylpropanamide] | 100 to 1000 nM | 
CN(C(=O)[C@H](Cc1ccccc1)NC(=O)NS(=O)(=O)Cc1ccc(F)cc1)c1ccc2c(c1)OCO2 [Example 110, (S)—N-(benzo[d][1,3]dioxol-5-yl)-2-(3-((4-fluorobenzyl)sulfonyl)ureido)-N-methyl-3-phenylpropanamide] | 100 to 1000 nM | 160 nM
CCN(C(=O)[C@H](Cc1ccccc1)NC(=O)NS(=O)(=O)c1cccc(-c2ccsc2Cl)c1)c1ccc(OC)cc1 [Example 150, (S)-2-(3-((3-(2-chlorothiophen-3-yl)phenyl)sulfonyl)ureido)-N-ethyl-N-ethyl-N-(4-methoxyphenyl)-3-phenylpropanamide] | 100 to 1000 nM | 
Cc1ccccc1S(=O)(=O)NC(=O)N[C@@H](Cc1ccccc1)C(=O)N1C[C@@H]2C[C@H]1CO2 [Example 187, N—(((S)-1-((1S,4S)-2-oxa-5-azabicyclo[2.2.1]heptan-5-yl)-1-oxo-3-phenylpropan-2-yl)carbamoyl)-2-methylbenzenesulfonamide] |  | > 33300 nM
CN(C(=O)[C@H](Cc1ccccc1)NC(=O)NS(=O)(=O)c1ccc(F)c(F)c1)c1ccc2c(c1)OCO2 [Example 26, (S)—N-(benzo[d][1,3]dioxol-5-yl)-2-(3-((3,4-difluorophenyl)sulfonyl)ureido)-N-methyl-3-phenylpropanamide] | 100 to 1000 nM | 
COc1ccc(N(C)C(=O)[C@H](Cc2ccncc2)NC(=O)NS(=O)(=O)c2ccccc2C)cc1 [Example 199, (S)—N-(4-methoxyphenyl)-N-methyl-3-(pyridin-4-yl)-2-(3-(o-tolylsulfonyl)ureido)propanamide] | 10000 to 100000 nM | 
CCc1cccc(C[C@H](NC(=O)NS(=O)(=O)c2ccccc2CC)C(=O)N(C)c2ccc(OC)cc2)c1 [Example 215, (S)-3-(3-ethylphenyl)-2-(3-((2-ethylphenyl)sulfonyl)ureido)-N-(4-methoxyphenyl)-N-methylpropanamide] | 100 to 1000 nM | 
CC(C)S(=O)(=O)NC(=O)N[C@@H](Cc1ccccc1)C(=O)N(C)c1ccc2c(c1)OCO2 [Example 43, (S)—N-(benzo[d][1,3]dioxol-5-yl)-2-(3-(isopropylsulfonyl)ureido)-N-methyl-3-phenylpropanamide] | 100 to 1000 nM | 
Cc1ccccc1S(=O)(=O)NC(=O)N[C@@H](Cc1cccc(Cl)c1)C(=O)N(C)c1ccc2c(c1)OCO2 [Example 55, (S)—N-(benzo[d][1,3]dioxol-5-yl)-3-(3-chlorophenyl)-N-methyl-2-(3-(o-tolylsulfonyl)ureido)propanamide] | 100 to 1000 nM | 
CCN(C(=O)[C@H](Cc1ccccc1)NC(=O)NS(=O)(=O)c1ccccc1C)c1ccc(OC(F)(F)F)cc1 [Example 178, (S)—N-ethyl-3-phenyl-2-(3-(o-tolylsulfonyl)ureido)-N-(4-(trifluoromethoxy)phenyl)propanamide] | < 100 nM | 80 nM
